From PubChem BioAssay (NCI) come the findings set out here.

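Cultured in 96-well plates, cells were exposed to test compound for 48 hours across five concentrations. TGI denotes the concentration required for complete inhibition of growth.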 Where only a bound is given, the exact number is not on record here.

Common to all, as to assay: NCI tumour cell line growth inhibition, 48 h
Experiment [1] concerns NCI-H226 lung.
Experiment [2] has as its system SF-295 CNS.
Experiment [3] relates to A549 NSCLC.
Experiment [4] has as its system HCT-116 colon.
For experiment [5], the system named is OVCAR-4 ovarian.
Experiment [6] deals with SNB-19 CNS.
The subject of experiment [7] is K-562 leukemia.
The subject of experiment [8] is SNB-75 CNS.
Experiment [9] relates to KM20L2 colon.
Experiment [10] concerns A498 renal.
For experiment [11], the system named is COLO 205 colon.
The test system of experiment [12] is CAKI-1 renal.
Experiment [13] has as its system MDA-MB-231 breast.
The subject of experiment [14] is 786-0 renal.
Experiment [15] deals with HS 578T breast.
Experiment [16] concerns PC-3 prostate.
Experiment [17] deals with RXF 393 renal.
Experiment [18] has as its system MDA-MB-435.
Experiment [19] deals with MDA-N.
Experiment [20] concerns DU-145 prostate.

Turning to `O=C1NP23(OCCO2)Oc2ccccc2C3(C(F)(F)F)O1` (configuration not stated), the TGI in experiment [1], in experiment [2], in experiment [3], in experiment [4], in [5] and in experiment [6] was > 100 µM throughout. Besides, the TGI in [7] and in experiment [8] was > 100 µM in each case.

Take `COc1ccc(/C(Cl)=C(\C=O)c2ccc(OC)c(OC)c2)cc1`: the TGI was > 100 µM in [1]; > 100 µM in experiment [2]; > 100 µM in experiment [9]; 98.8 µM in experiment [10]; > 100 µM in experiment [11]; > 100 µM in experiment [12]. Also, the TGI in experiment [6] was > 100 µM; in experiment [7] it was > 100 µM; in experiment [8], 58.7 µM.

`O=C(O)C1C2C=CC(C2)C1c1ccccc1` (configuration not stated): the TGI in experiment [1], in [2], in experiment [13], in [10], in experiment [14] and in [3] was > 100 µM each time. The TGI in experiment [15], in experiment [4], in experiment [11], in experiment [16], in [17] and in experiment [12] was > 100 µM in each case. Moreover, the TGI in experiment [18], in experiment [6], in [7], in experiment [19], in [20] and in [8] was > 100 µM each time.

With `Cc1cc(C)c(C[C@H]2COC(=O)[C@]2(O)Cc2c(C)cc(C)cc2C)c(C)c1`, the TGI in [1] was 33.7 µM; in [2], 34.1 µM; in experiment [13] it was 35.9 µM; in [10], 30.9 µM; in experiment [14] it was 38.5 µM; in experiment [3] it was 34 µM. Further, the TGI in experiment [15] is 38.5 µM; in experiment [4], 43 µM; in experiment [11], 40.3 µM; in [16], 32.1 µM; in experiment [17] it was 25.4 µM; in experiment [12] it was 34.6 µM. Moreover, the TGI was 28.3 µM in experiment [5]; 37 µM in experiment [18]; 39.4 µM in experiment [6]; > 100 µM in experiment [7]; 44.4 µM in experiment [19]; 31.9 µM in experiment [20]. In [8], this compound returned a TGI of 43.6 µM.

With `CCOP(=O)(COCCn1ncc(=O)[nH]c1=O)OCC`, the TGI in [1], in experiment [13], in experiment [10], in experiment [3], in [15] and in [11] was > 100 µM in each case. For the same compound, the TGI in experiment [16], in experiment [17], in experiment [12], in [18], in experiment [6] and in experiment [19] was > 100 µM each time. The TGI in experiment [20] and in [8] was > 100 µM throughout.

Turning to `COc1cc(O)c(C(=O)/C=C/c2ccc(O)cc2)cc1Oc1ccc(/C=C/C(=O)c2ccc(O)cc2O)cc1`, the TGI in [2] was 18.2 µM; in experiment [13], 36.7 µM; in experiment [10], 14.1 µM; in experiment [14], 16.5 µM; in experiment [3] it was > 50 µM; in experiment [15] it was > 50 µM. For the same compound, the TGI in experiment [4] was found to be 14.7 µM; in experiment [11] it was 15.4 µM; in [16], 22.1 µM; in experiment [17], 17.5 µM; in experiment [12] it was 38.9 µM; in [5] it was 16 µM. The TGI worked out at 25.7 µM in experiment [18]; 43.1 µM in experiment [6]; 22.8 µM in [7]; 31 µM in experiment [19]; 23.6 µM in experiment [20]; 20.1 µM in experiment [8].

In the case of `CN1C(=O)CSC1=S`, the TGI in experiment [1], in experiment [2], in [9], in [10], in experiment [14] and in experiment [3] was > 100 µM each time. Also, the TGI in [4], in experiment [11], in experiment [17], in experiment [12], in experiment [5] and in [7] was > 100 µM in each case. Further, in [8], the TGI was > 100 µM.

On to `COC(=O)c1ccccc1Nc1nc(-c2cccs2)nc2cc(OC)c(OC)cc12`, for which the TGI was 89.4 µM in experiment [1]; 97.7 µM in experiment [2]; > 100 µM in [13]; > 100 µM in experiment [10]; > 100 µM in experiment [14]; > 100 µM in [3]. Moreover, the TGI in experiment [15], in experiment [4], in [11], in experiment [16], in [17] and in experiment [12] was > 100 µM throughout. The TGI in experiment [5], in experiment [18], in experiment [6], in [7], in experiment [20] and in [8] was > 100 µM in each case.

`COc1c(OC(C)=O)c(OC(C)=O)cc2c1-c1ccc(SC)c(=O)cc1C(NC(C)=O)CC2` (configuration not stated): the TGI was 33.1 µM in experiment [1]; 21.3 µM in [2]; 6.84 µM in experiment [9]; > 100 µM in [13]; 56 µM in experiment [10]; > 100 µM in experiment [14]. For the same compound, the TGI was > 100 µM in [3]; 0.701 µM in [15]; > 100 µM in experiment [4]; 4.32 µM in [11]; > 100 µM in experiment [16]; > 86.7 µM in experiment [17]. Besides, the TGI in experiment [12] is > 87.1 µM; in experiment [5], > 100 µM; in experiment [18] it was 0.632 µM; in [6], > 100 µM; in experiment [7] it was > 43.8 µM; in experiment [19], 0.576 µM. Further, the TGI in [20] was 4.12 µM; in [8], 15.3 µM.

Turning to `O=C(c1ccccc1)c1c(-c2ccccc2)n(-c2ccccc2)[nH]c(=O)c1=O`, the TGI in [1] was > 100 µM; in experiment [2] it was > 100 µM; in experiment [13], 84.9 µM; in [10], > 100 µM; in experiment [14], > 100 µM; in experiment [3], > 100 µM. For the same compound, the TGI in [15] was 62.1 µM; in [4] it was > 100 µM; in experiment [11], > 100 µM; in experiment [16], 32.9 µM; in experiment [12] it was > 100 µM; in [5] it was > 100 µM. The TGI in experiment [18] was > 100 µM; in experiment [6], > 100 µM; in experiment [7], 81.4 µM; in experiment [19], > 100 µM; in experiment [20], > 100 µM.

With `C=CC1C(OC2OC(CO)C(O)C(O)C2O)OC=C(C(=O)OC)C1CC1CC(=O)CC(CCc2ccc(O)cc2)O1` (configuration not stated), the TGI in [1], in [2], in experiment [13], in experiment [10], in experiment [14] and in experiment [3] was > 100 µM throughout. For the same compound, the TGI in experiment [15], in experiment [4], in experiment [11], in experiment [16], in experiment [17] and in [12] was > 100 µM throughout. Besides, the TGI in experiment [5], in experiment [18], in [6], in experiment [7], in [19] and in [20] was > 100 µM throughout. Moreover, the TGI in experiment [8] was > 100 µM.

`CCC(C)C1NC(=O)C(NC(=O)c2c3[nH]c4c(C(=O)NC5C(=O)NC(C(C)CC)C(=O)N6CCCC6C(=O)N(C)CC(=O)N(C)C(C(C)C)C(=O)OC5C)ccc(C)c4oc-3c(C)c(=O)c2=O)C(C)OC(=O)C(C(C)C)N(C)C(=O)CN(C)C(=O)C2CCCN2C1=O` (configuration not stated): the TGI in experiment [1] is > 51.6 µM; in experiment [2], > 93 µM; in experiment [13] it was 55.2 µM; in [10], 39.4 µM; in experiment [14] it was > 79.9 µM; in [3] it was > 100 µM. Moreover, the TGI was 37.8 µM in experiment [15]; 40.4 µM in experiment [4]; 13.4 µM in [11]; > 100 µM in experiment [16]; 25 µM in [17]; > 91.2 µM in experiment [12]. Further, the TGI in experiment [5] is > 89.1 µM; in experiment [18], > 71.6 µM; in experiment [6] it was > 100 µM; in experiment [7] it was > 65 µM; in experiment [19] it was 33 µM; in [20], > 78 µM. In experiment [8], this compound registered a TGI of 32.9 µM.
